From paper PMC11288027, “Exploring novel microbial metabolites and drugs for inhibiting Clostridioides difficile” (mSphere, 2024)
Structures can show the parent of a compound that is named as a salt. Where two headings read alike, the source gives them in different places.

Columns and labels:
L. casei = test: MIC against human gut microbiota; assay type: cell-based; settings: Lacticaseibacillus casei, ATCC334, read-out: minimum inhibitory concentration (MIC)
Bif. adolescentis = test: MIC against human gut microbiota; assay type: cell-based, Bifidobacterium adolescentis; settings: Bifidobacterium adolescentis, read-out: minimum inhibitory concentration (MIC)
[1] = test system: C. difficile ATCC BAA-1870; test: MIC of active hits by broth microdilution; settings: Clostridioides difficile, ATCCBAA1870, 48 h
L. brevis = test: MIC against human gut microbiota; assay type: cell-based, Lactobacillus brevis; settings: Levilactobacillus brevis, ATCC14864, read-out: minimum inhibitory concentration (MIC)
E. fecalis = test: MIC against human gut microbiota; assay type: cell-based, Enterococcus faecalis; settings: Enterococcus faecalis, read-out: minimum inhibitory concentration (MIC)
[2] = test system: C. difficile clinical isolates; test: MIC against a panel of 20 C. difficile clinical isolates (broth microdilution); assay type: cell-based, Clostridioides difficile; settings: Clostridioides difficile; for MIC50: concentration that inhibited 50% of the 20 C. difficile clinical isolates
L. rhamanosus = test: MIC against human gut microbiota; assay type: cell-based, Lactobacillus rhamnoosus; settings: Lactobacillus, ATCC53103, read-out: minimum inhibitory concentration (MIC)
B. fragilis = test: MIC against human gut microbiota; assay type: cell-based, Bacteroides fragilis
E. faecium = test: MIC against human gut microbiota; assay type: cell-based, Enterococcus faecium; settings: Enterococcus faecium, read-out: minimum inhibitory concentration (MIC)
Bif. angulatum = test: MIC against human gut microbiota; assay type: cell-based, Bifidobacterium angulatum; settings: Bifidobacterium angulatum, read-out: minimum inhibitory concentration (MIC)
Bif. breve = test: MIC against human gut microbiota; assay type: cell-based, Bifidobacterium breve; settings: Bifidobacterium breve, ATCC15700, read-out: minimum inhibitory concentration (MIC)
Bif. longum = test: MIC against human gut microbiota; assay type: cell-based, Bifidobacterium longum; settings: Bifidobacterium longum, read-out: minimum inhibitory concentration (MIC)
B. dorei = test: MIC against human gut microbiota; assay type: cell-based, Bacteroides dorei; settings: Phocaeicola dorei, read-out: minimum inhibitory concentration (MIC)
[3] = test system: C. difficile ATCC BAA-1870; test: Time-kill assay at 5 × MIC; settings: C. difficile ATCC BAA-1870, ~10^6 CFU/mL, up to 24 h

Question: How did the MIC (L. casei) turn out when `CN[C@H](CC(C)C)C(=O)N[C@H]1C(=O)N[C@@H](CC(N)=O)C(=O)N[C@H]2C(=O)N[C@H]3C(=O)N[C@H](C(=O)N[C@H](C(=O)O)c4cc(O)cc(O)c4-c4cc3ccc4O)[C@H](O)c3ccc(c(Cl)c3)Oc3cc2cc(c3O[C@@H]2O[C@H](CO)[C@@H](O)[C@H](O)[C@H]2O[C@H]2C[C@](C)(N)[C@H](O)[C@H](C)O2)Oc2ccc(cc2Cl)[C@H]1O` [Vancomycin, vancomycin hydrochloride] was run?
Answer: > 256 µg/mL

Question: What about the MIC (Bif. adolescentis) of the same molecule?
Answer: ≤ 2 µg/mL

Question: And the MIC [1]?
Answer: 1 µg/mL

Question: And the MIC (L. brevis)?
Answer: > 256 µg/mL

Question: What about the MIC (E. fecalis) of the same molecule?
Answer: > 256 µg/mL

Question: What about the MIC90 [2] of the same molecule?
Answer: 2 µg/mL

Question: And the MIC50 ([2]; 48 h)?
Answer: 0.5 µg/mL

Question: And the MIC ([2]; ATCC630, read-out: minimum inhibitory concentration (MIC), C. difficile ATCC 630)?
Answer: 0.25 µg/mL

Question: What about the MIC ([2]; ATCC43255, read-out: minimum inhibitory concentration (MIC), C. difficile ATCC 43255) of the same molecule?
Answer: 0.25 µg/mL

Question: And the MIC ([2]; ATCCBAA1870, read-out: minimum inhibitory concentration (MIC), C. difficile ATCC BAA-1870 (Ribotype-027), purchased compounds, panel test)?
Answer: 1 µg/mL

Question: And the MIC ([2]; read-out: minimum inhibitory concentration (MIC), C. difficile CD-1 (Ribotype-027))?
Answer: 2 µg/mL

Question: What about the MIC ([2]; read-out: minimum inhibitory concentration (MIC), C. difficile CD-6 (Ribotype-027)) of the same molecule?
Answer: 2 µg/mL

Question: What about the MIC ([2]; read-out: minimum inhibitory concentration (MIC), C. difficile CD-10(Ribotype-027)) of the same molecule?
Answer: 2 µg/mL

Question: And the MIC ([2]; read-out: minimum inhibitory concentration (MIC), C. difficile CD-12)?
Answer: 1 µg/mL

Question: And the MIC ([2]; read-out: minimum inhibitory concentration (MIC), C. difficile CD-13)?
Answer: 0.5 µg/mL

Question: And the MIC ([2]; read-out: minimum inhibitory concentration (MIC), C. difficile CD-15)?
Answer: 0.5 µg/mL

Question: What about the MIC ([2]; read-out: minimum inhibitory concentration (MIC), C. difficile CD-22) of the same molecule?
Answer: 0.5 µg/mL

Question: And the MIC ([2]; read-out: minimum inhibitory concentration (MIC), C. difficile CD-23)?
Answer: 0.25 µg/mL

Question: And the MIC ([2]; read-out: minimum inhibitory concentration (MIC), C. difficile CD-24)?
Answer: 0.25 µg/mL

Question: And the MIC ([2]; read-out: minimum inhibitory concentration (MIC), C. difficile CD-26 (Ribotype-027))?
Answer: 1 µg/mL

Question: And the MIC ([2]; read-out: minimum inhibitory concentration (MIC), C. difficile CD-28)?
Answer: 0.5 µg/mL

Question: What about the MIC ([2]; read-out: minimum inhibitory concentration (MIC), C. difficile CD-29 (Ribotype-027)) of the same molecule?
Answer: 1 µg/mL

Question: And the MIC ([2]; read-out: minimum inhibitory concentration (MIC), C. difficile CD-30)?
Answer: 0.5 µg/mL

Question: And the MIC ([2]; read-out: minimum inhibitory concentration (MIC), C. difficile NR-49302)?
Answer: 0.5 µg/mL

Question: What about the MIC ([2]; read-out: minimum inhibitory concentration (MIC), C. difficile NR-49304) of the same molecule?
Answer: 0.5 µg/mL

Question: And the MIC ([2]; read-out: minimum inhibitory concentration (MIC), C. difficile NR-49308)?
Answer: 0.5 µg/mL

Question: And the MIC ([2]; read-out: minimum inhibitory concentration (MIC), C. difficile NR-49319)?
Answer: 0.5 µg/mL

Question: What about the MIC50 [2] of the same molecule?
Answer: 0.5 µg/mL

Question: And the MIC (L. rhamanosus)?
Answer: > 256 µg/mL

Question: And the “minimum inhibitory concentration (MIC)” value (B. fragilis)?
Answer: 32 µg/mL

Question: And the MIC (B. fragilis; Bacteroides fragilis, read-out: minimum inhibitory concentration (MIC))?
Answer: 16 µg/mL

Question: What about the MIC (E. faecium) of the same molecule?
Answer: ≤ 2 µg/mL

Question: What about the MIC (Bif. angulatum) of the same molecule?
Answer: ≤ 2 µg/mL

Question: And the MIC (Bif. breve)?
Answer: ≤ 2 µg/mL

Question: And the MIC (Bif. longum)?
Answer: ≤ 2 µg/mL

Question: What about the MIC (B. dorei) of the same molecule?
Answer: 16 µg/mL

Question: What about the “time to eliminate / clear C. difficile” value [3] of the same molecule?
Answer: ≤ 24 h
